{"source": "patent US7109193B2", "about": "“Tricyclic diazepines tocolytic oxytocin receptor antagonists” (Wyeth, priority 2001, dated 2006)"}
{"target": "T1, human vasopressin V2 receptor subtype (Homo sapiens, UniProt P30518)", "T1 construct": "host or cells: CHO cells (pZeoSV vector)", "T1 sequence (P30518 whole entry)": "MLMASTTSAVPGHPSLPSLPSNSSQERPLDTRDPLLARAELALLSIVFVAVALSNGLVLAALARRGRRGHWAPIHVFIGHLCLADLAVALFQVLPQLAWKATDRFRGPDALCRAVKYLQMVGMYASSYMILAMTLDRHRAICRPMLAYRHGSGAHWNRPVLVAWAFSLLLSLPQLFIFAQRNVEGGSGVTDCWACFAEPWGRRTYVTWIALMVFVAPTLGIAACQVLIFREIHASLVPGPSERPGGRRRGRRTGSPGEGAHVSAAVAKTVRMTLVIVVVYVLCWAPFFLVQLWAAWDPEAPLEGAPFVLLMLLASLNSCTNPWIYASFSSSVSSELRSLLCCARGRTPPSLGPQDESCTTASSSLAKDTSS", "test": "Vasopressin binding in Chinese Hamster Ovary cell membranes expressing human vasopressin V2 subtype receptors", "conditions": "100 nM, CHO cell membranes, [3H]arginine vasopressin, values without parentheses", "in_short": "(§1)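 Radioligand displacement on membranes from CHO cells stably expressing human V2 receptor, 25 to 50 μg protein/well, in 50 mM Tris-HCl pH 7.4 with MgCl2, BSA and protease inhibitors. [^3H]arginine vasopressin (8 nM working solution) incubated 60 min at room temperature; bound label measured by filtration and scintillation counting.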", "units": {"inhibition at 0.1 µM": "%"}}
{"compound": "Cc1ccccc1-c1ccc(C(=O)N2Cc3ccc(C(=O)N4CCCN(C)CC4)n3Cc3ccccc32)cc1", "note": "[Example 65, {10-[(2′-Methyl[1,1′-biphenyl]-4-yl)carbonyl]-10,11-dihydro-5H-pyrrolo[2,1-c][1,4]benzodiazepin-3-yl}(4-methyl-1,4-diazepan-1-yl)methanone]", "inhibition at 0.1 µM": 6}
{"compound": "COc1ccccc1-c1ccc(C(=O)N2Cc3ccc(C(=O)N[C@@H](Cc4c[nH]cn4)C(N)=O)n3Cc3ccccc32)cc1OC", "note": "[Example 286, N-[(1S)-2-Amino-1-(1H-imidazol-4-ylmethyl)-2-oxoethyl]-10-[(2,2′-dimethoxy[1,1′-biphenyl]-4-yl)carbonyl]-10,11-dihydro-5H-pyrrolo[2,1-c][1,4]benzodiazepine-3-carboxamide]", "inhibition at 0.1 µM": 27}
{"compound": "COc1cc(C(=O)N2Cc3ccc(C(=O)N4CCN(C(C)C)CC4)n3Cc3ccccc32)ccc1-n1c(C)ccc1C", "note": "[Example 319, {10-[4-(2,5-Dimethyl-1H-pyrrol-1-yl)-3-methoxybenzoyl]-10,11-dihydro-5H-pyrrolo[2,1-c][1,4]benzodiazepin-3-yl}(4-isopropyl-1-piperazinyl)methanone]", "inhibition at 0.1 µM": 13}
{"compound": "COc1cc(C(=O)N2Cc3ccc(C(=O)N4CCN(CCCN(C)C)CC4)n3Cc3ccccc32)ccc1-c1cccc2ccccc12", "note": "[Example 253, {4-[3-(Dimethylamino)propyl]-1-piperazinyl}{10-[3-methoxy-4-(1-naphthyl)benzoyl]-10,11-dihydro-5H-pyrrolo[2,1-c][1,4]benzodiazepin-3-yl}methanone]", "inhibition at 0.1 µM": -10}
{"compound": "CN1CCCN(C(=O)c2ccc3n2Cc2ccccc2N(C(=O)c2ccc(-c4cccc5ccccc45)cc2Cl)C3)CC1", "note": "[Example 71, {10-[2-Chloro-4-(1-naphthyl)benzoyl]-10,11-dihydro-5H-pyrrolo[2,1-c][1,4]benzodiazepin-3-yl}(4-methyl-1,4-diazepan-1-yl)methanone]", "inhibition at 0.1 µM": 13}
{"compound": "COc1ccccc1-c1ccc(C(=O)N2Cc3ccc(C(=O)NCCCN(C)C)n3Cc3ccccc32)cc1", "note": "[Example 75, N-[3-(Dimethylamino)propyl]-10-[(2′-methoxy[1,1′-biphenyl]-4-yl)carbonyl]-10,11-dihydro-5H-pyrrolo[2,1-c][1,4]benzodiazepine-3-carboxamide]", "inhibition at 0.1 µM": 14}
{"compound": "COc1ccccc1-c1ccc(C(=O)N2Cc3ccc(C(=O)N[C@@H](Cc4c[nH]cn4)C(N)=O)n3Cc3ccccc32)cc1C", "note": "[Example 288, N-[(1S)-2-Amino-1-(1H-imidazol-4-ylmethyl)-2-oxoethyl]-10-[(2′-methoxy-2-methyl[1,1′-biphenyl]4-yl)carbonyl]-10,11-dihydro-5H-pyrrolo[2,1-c][1,4]benzodiazepine-3-carboxamide]", "inhibition at 0.1 µM": 32}
{"compound": "COc1ccccc1-c1ccc(C(=O)N2Cc3ccc(C(=O)N4CCN(C)CC4)n3Cc3ccccc32)cc1OC", "note": "[Example 56, {10-[(2,2′-Dimethoxy[1,1′-biphenyl]-4-yl)carbonyl]-10,11-dihydro-5H-pyrrolo[2,1-c][1,4]benzodiazepin-3-yl}(4-methyl-1-piperazinyl)methanone]", "inhibition at 0.1 µM": 27}
{"compound": "COc1cc(C(=O)N2Cc3ccc(C(=O)NCCN4CCCCC4)n3Cc3ccccc32)ccc1-n1c(C)ccc1C", "note": "[Example 314, 10-[4-(2,5-Dimethyl-1H-pyrrol-1-yl)-3-methoxybenzoyl]-N-[2-(1-piperidinyl)ethyl]-10,11-dihydro-5H-pyrrolo[2,1-c][1,4]benzodiazepine-3-carboxamide]", "inhibition at 0.1 µM": 7}
{"target": "T1, human vasopressin V2 receptor subtype", "test": "Vasopressin binding in Chinese Hamster Ovary cell membranes expressing human vasopressin V2 subtype receptors", "conditions": "100 nM, CHO cell membranes, [3H]arginine vasopressin, values without parentheses, 0.1 µM", "in_short": "as §1", "units": {"V2 % inhibition @ 100 nM": "%"}}
{"compound": "Cc1cc(C(=O)N2Cc3ccc(C(=O)N4CCN(CCCN(C)C)CC4)n3Cc3ccccc32)ccc1-c1ccccc1C(F)(F)F", "note": "[Example 257, {10-[(2-Methyl-2′-trifluoromethyl-[1,1′-biphenyl]-4-yl)carbonyl]-10,11-dihydro-5H-pyrrolo[2,1-c][1,4]benzodiazepin-3-yl}{4-[3-(dimethylamino)propyl]-1-piperazinyl}-methanone]", "V2 % inhibition @ 100 nM": 16}
